Assay results reported in US12319684B2 (Sanford Burnham Prebys Medical Discovery Institute, priority 2014, dated 2025).
Where two headings read alike, the source gives them in different places.

Biological target: T1, human apelin receptor (APJ, AGTRL-1, APLNR) (Homo sapiens, UniProt P35414)
T1 construct: host or cells: Chinese hamster ovary cells
T1 sequence (P35414 1-380): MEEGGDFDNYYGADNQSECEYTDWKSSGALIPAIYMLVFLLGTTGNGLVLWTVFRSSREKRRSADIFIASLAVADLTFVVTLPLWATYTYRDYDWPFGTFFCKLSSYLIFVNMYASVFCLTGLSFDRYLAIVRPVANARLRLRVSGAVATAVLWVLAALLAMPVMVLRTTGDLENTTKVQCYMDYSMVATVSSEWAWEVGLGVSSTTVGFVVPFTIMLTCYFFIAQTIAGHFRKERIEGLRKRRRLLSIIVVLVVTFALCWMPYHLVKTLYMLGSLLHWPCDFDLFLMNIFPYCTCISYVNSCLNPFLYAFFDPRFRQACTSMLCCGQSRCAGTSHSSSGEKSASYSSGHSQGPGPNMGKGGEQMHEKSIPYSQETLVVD
Test: APJ cAMP cell-based assay (forskolin-stimulated CHO cells, enzyme fragment complementation)
Details: for Emax: CHO, 0.5 h, read-out: APJ cAMP % resp (efficacy)
Description: The assays disclosed herein were performed using cell lines from DiscoveRx, Inc.
Biological activity was determined in a cell-based assay. This assay detects activation of the receptor by reporting on intracellular cyclic adenosine monophosphate (cAMP) level. Chinese hamster ovary cells engineered to express a stably integrated human apelin receptor (APJ, AGTRL-1, APLNR), were plated into the wells of a microtiter plate. Cells were stimulated with forskolin to increase intracellular cAMP. Immediately following, compounds were added at a range of final concentrations 0.0-100 μM, in DMSO (not to exceed a final DMSO concentration of >1% v/v), and allowed to incubate with the cells for 0.5 h. At the end of the incubation, cells were lysed to stop APJ signaling, and cAMP was quantified using a commercially available assay kit that applies enzyme fragment complementation technology and bioluminescence, in a competitive ELISA format.
Compound efficacy (% resp) is reported as a percentage of the maximal apelin-13 response at 1 nM (control).

[1] = CHO cells expressing human APJ, forskolin-stimulated, 0.5 h incubation, 50% of control (apelin-13, 1 nM) response, read-out: APJ cAMP EC50
[2] = percentage of the maximal apelin-13 response at 1 nM (control)

SMILES	EC50 [1]	Emax [2]	Emax	EC50
Cc1ccc2nc(CSc3nnc(-c4cccs4)n3-c3ccccc3F)cc(=O)n2c1 [Example 24, 2-[4-(2-Fluoro-phenyl)-5-thiophen-2-yl-4H-[1,2,4]triazol-3-ylsulfanylmethyl]-7-methyl-pyrido[1,2-a]pyrimidin-4-one]	> 10000 nM			
Cc1ccc2nc(CSc3nnc(-c4cccs4)n3-c3ccc(OC(F)(F)F)cc3)cc(=O)n2c1 [Example 25, 7-Methyl-2-[5-thiophen-2-yl-4-(4-trifluoromethoxy-phenyl)-4H-[1,2,4]triazol-3-ylsulfanylmethyl]-pyrido[1,2-a]pyrimidin-4-one]	> 10000 nM	52%		
Cc1ccc2nc(CSc3nnc(-c4cccs4)n3-c3ccc(Cl)cc3)cc(=O)n2c1 [Example 26, 2-[4-(4-Chloro-phenyl)-5-thiophen-2-yl-4H-[1,2,4]triazol-3-ylsulfanylmethyl]-7-methyl-pyrido[1,2-a]pyrimidin-4-one]	> 10000 nM	86%		
Cc1ccc2nc(CSc3nnc(-c4cccs4)n3-c3ccccc3OC(F)(F)F)cc(=O)n2c1 [Example 27, 7-Methyl-2-[5-thiophen-2-yl-4-(2-trifluoromethoxy-phenyl)-4H-[1,2,4]triazol-3-ylsulfanylmethyl]-pyrido[1,2-a]pyrimidin-4-one]	17.4 nM	82%		
Cc1ccc2nc(CSc3nnc(-c4cccs4)n3-c3cccc(Cl)c3)cc(=O)n2c1 [Example 28, 2-[4-(3-Chloro-phenyl)-5-thiophen-2-yl-4H-[1,2,4]triazol-3-ylsulfanylmethyl]-7-methyl-pyrido[1,2-a]pyrimidin-4-one]	> 10000 nM	91%		
Cc1ccc2nc(CSc3nnc(-c4cccs4)n3-c3ccccc3Cl)cc(=O)n2c1 [Example 29, 2-[4-(2-Chloro-phenyl)-5-thiophen-2-yl-4H-[1,2,4]triazol-3-ylsulfanylmethyl]-7-methyl-pyrido[1,2-a]pyrimidin-4-one]	252 nM	62%		
COc1ccc(-n2c(SCc3cc(=O)n4cc(C)ccc4n3)nnc2-c2cccs2)cn1 [Example 30]	> 10000 nM	31%		
COc1ccccc1-n1c(SCc2csc(-c3ccccc3)n2)nnc1-c1cccs1 [Example 31, 4-(2-Methoxy-phenyl)-3-(2-phenyl-thiazol-4-ylmethylsulfanyl)-5-thiophen-2-yl-4H-[1,2,4]triazole]	635 nM		133%	
COc1ccccc1-n1c(SCc2csc(-c3ccc(C(F)(F)F)cc3)n2)nnc1-c1cccs1 [Example 32, 4-(2-Methoxy-phenyl)-3-thiophen-2-yl-5-[2-(4-trifluoromethyl-phenyl)-thiazol-4-ylmethylsulfanyl]-4H-[1,2,4]triazole]	1460 nM	33%		
COc1ccccc1-n1c(SCc2csc(-c3ccc(F)cc3)n2)nnc1-c1cccs1 [Example 33, 3-[2-(4-Fluoro-phenyl)-thiazol-4-ylmethylsulfanyl]-4-(2-methoxy-phenyl)-5-thiophen-2-yl-4H-[1,2,4]triazole]	1170 nM	80%		
COc1ccccc1-n1c(SCc2csc(-c3ccc([N+](=O)[O-])cc3)n2)nnc1-c1cccs1 [Example 34, 4-(2-Methoxy-phenyl)-3-[2-(4-nitro-phenyl)-thiazol-4-ylmethylsulfanyl]-5-thiophen-2-yl-4H-[1,2,4]triazole]	> 10000 nM	120%		
COc1ccccc1-n1c(SCc2csc(-c3ccc(Cl)cc3)n2)nnc1-c1cccs1 [Example 35, 3-[2-(4-Chloro-phenyl)-thiazol-4-ylmethylsulfanyl]-4-(2-methoxy-phenyl)-5-thiophen-2-yl-4H-[1,2,4]triazole]	> 10000 nM	90%		
COc1ccccc1-n1c(SCc2csc(-c3ccc(C)cc3)n2)nnc1-c1cccs1 [Example 36, 4-(2-Methoxy-phenyl)-3-thiophen-2-yl-5-(2-p-tolyl-thiazol-4-ylmethylsulfanyl)-4H-[1,2,4]triazole]	> 10000 nM	83%		
COc1ccc(-c2nc(CSc3nnc(-c4cccs4)n3-c3ccccc3OC)co2)cc1 [Example 37, 4-(2-Methoxy-phenyl)-3-[2-(4-methoxy-phenyl)-oxazol-4-ylmethylsulfanyl]-5-thiophen-2-yl-4H-[1,2,4]triazole]	3090 nM	138%		
COc1ccccc1-n1c(SCc2coc(-c3ccc(C(F)(F)F)cc3)n2)nnc1-c1cccs1 [Example 38, 4-(2-Methoxy-phenyl)-3-thiophen-2-yl-5-[2-(4-trifluoromethyl-phenyl)-oxazol-4-ylmethylsulfanyl]-4H-[1,2,4]triazole]	> 10000 nM	18%		
COc1ccccc1-n1c(SCc2coc(-c3ccc(F)cc3)n2)nnc1-c1cccs1 [Example 39, 3-[2-(4-Fluoro-phenyl)-oxazol-4-ylmethylsulfanyl]-4-(2-methoxy-phenyl)-5-thiophen-2-yl-4H-[1,2,4]triazole]	105 nM	93%		
COc1ccccc1-n1c(SCc2coc(-c3ccc(Cl)cc3)n2)nnc1-c1cccs1 [Example 40, 3-[2-(4-Chloro-phenyl)-oxazol-4-ylmethylsulfanyl]-4-(2-methoxy-phenyl)-5-thiophen-2-yl-4H-[1,2,4]triazole]	3340 nM	58%		
COc1ccccc1-n1c(SCc2coc(-c3ccc(C)cc3)n2)nnc1-c1cccs1 [Example 41, 4-(2-Methoxy-phenyl)-3-thiophen-2-yl-5-(2-p-tolyl-oxazol-4-ylmethylsulfanyl)-4H-[1,2,4]triazole]	2490 nM	58%		
COc1ccccc1-n1c(SCc2coc(-c3ccc(Br)cc3)n2)nnc1-c1cccs1 [Example 42, 3-[2-(4-Bromo-phenyl)-oxazol-4-ylmethylsulfanyl]-4-(2-methoxy-phenyl)-5-thiophen-2-yl-4H-[1,2,4]triazole]	> 10000 nM	33%		
COc1ccccc1-n1c(SCc2coc(-c3ccc(OC(F)(F)F)cc3)n2)nnc1-c1cccs1 [Example 43, 4-(2-Methoxy-phenyl)-3-thiophen-2-yl-5-[2-(4-trifluoromethoxy-phenyl)-oxazol-4-ylmethylsulfanyl]-4H-[1,2,4]triazole]	3890 nM	102%		
COc1ccccc1-n1c(SCc2cc(=O)n3c(C)cccc3n2)nnc1-c1cccs1 [Example 44, 2-[4-(2-Methoxy-phenyl)-5-thiophen-2-yl-4H-[1,2,4]triazol-3-ylsulfanylmethyl]-6-methyl-pyrido[1,2-a]pyrimidin-4-one]			119%	9.8 nM
COc1ccc2nc(CSc3nnc(-c4cccs4)n3-c3ccccc3OC)cc(=O)n2c1 [Example 45, 7-Methoxy-2-[4-(2-methoxy-phenyl)-5-thiophen-2-yl-4H-[1,2,4]triazol-3-ylsulfanylmethyl]-pyrido[1,2-a]pyrimidin-4-one]	70.5 nM	130%		
COc1ccccc1-n1c(SCc2cc(=O)n3cc(Br)ccc3n2)nnc1-c1cccs1 [Example 46, 7-Bromo-2-[4-(2-methoxy-phenyl)-5-thiophen-2-yl-4H-[1,2,4]triazol-3-ylsulfanylmethyl]-pyrido[1,2-a]pyrimidin-4-one]	7.8 nM	117%		
COc1ccccc1-n1c(SCc2cc(=O)n3cc(C#N)ccc3n2)nnc1-c1cccs1 [Example 47, 2-[4-(2-Methoxy-phenyl)-5-thiophen-2-yl-4H-[1,2,4]triazol-3-ylsulfanylmethyl]-4-oxo-4H-pyrido[1,2-a]pyrimidine-7-carbonitrile]	25.2 nM	54%		
COc1ccccc1-n1c(SCc2cc(=O)n3cc(C)ccc3n2)nnc1-c1cccs1 [Example 48, 2-[4-(2-Methoxy-phenyl)-5-thiophen-2-yl-4H-[1,2,4]triazol-3-ylsulfanylmethyl]-7-methyl-pyrido[1,2-a]pyrimidin-4-one]	28 nM	103%		
COc1ccccc1-n1c(SCc2cc(=O)n3cc(F)ccc3n2)nnc1-c1cccs1 [Example 49, 7-Fluoro-2-[4-(2-methoxy-phenyl)-5-thiophen-2-yl-4H-[1,2,4]triazol-3-ylsulfanylmethyl]-pyrido[1,2-a]pyrimidin-4-one]	23.4 nM	107%		
COc1ccccc1-n1c(SCc2cc(=O)n3cc(Cl)ccc3n2)nnc1-c1cccs1 [Example 50, 7-Chloro-2-[4-(2-methoxy-phenyl)-5-thiophen-2-yl-4H-[1,2,4]triazol-3-ylsulfanylmethyl]-pyrido[1,2-a]pyrimidin-4-one]	6.74 nM	110%		
COc1ccccc1-n1c(SCc2cc(=O)n3ccc(C)cc3n2)nnc1-c1cccs1 [Example 51, 2-[4-(2-Methoxy-phenyl)-5-thiophen-2-yl-4H-[1,2,4]triazol-3-ylsulfanylmethyl]-8-methyl-pyrido[1,2-a]pyrimidin-4-one]	451 nM	125%		
